Assay [1] has as its target T1, LXRβ ligand-binding domain (Homo sapiens, UniProt P55055, DUP175-175).
T1 construct: amino acids 156-461; NP009052; made in house; host or cells: E. coli
T1 sequence (P55055 with tags, fused parts or gaps DUP175-175 limits assumed): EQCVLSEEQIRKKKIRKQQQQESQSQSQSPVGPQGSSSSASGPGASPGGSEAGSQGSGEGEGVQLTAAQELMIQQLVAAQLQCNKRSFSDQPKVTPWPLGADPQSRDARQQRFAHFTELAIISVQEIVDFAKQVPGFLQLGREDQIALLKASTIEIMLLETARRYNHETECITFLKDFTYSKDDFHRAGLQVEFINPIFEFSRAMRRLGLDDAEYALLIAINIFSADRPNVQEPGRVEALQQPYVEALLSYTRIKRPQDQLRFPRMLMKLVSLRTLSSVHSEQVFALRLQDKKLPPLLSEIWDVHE
In words: TR-FRETβ activity assay (NCoA3 coactivator peptide recruitment). The class given is biochemical. The note with it: TR-FRET, 1 μM 24(S)-25-epoxycholesterol prestimulation; read-out: FRETβ (EC50 range). How it is done:
(§1) The tested compounds were usually dissolved, tested and stored as 20 mM stock solutions in DMSO. Since sulfonyl acetic acid derivatives tend to decarboxylate under these conditions, these stock solutions were prepared, tested and stored as 20 mM DMSO stock solutions containing 100 mM trifluoroacetic Acid (5 equivalents). Sulfonyl acetic acid derivatives are shelf stable as solid at rt for long time as reported by Griesbrecht et al. (Synlett 2010:374) or Faucher et al. (J. Med. Chem. 2004; 47:18).
Recombinant GST-LXRPβ ligand-binding domain (LBD; amino acids 156-461; NP009052; SEQ ID NO:4) was expressed in E. coli and purified via gluthatione-sepharose affinity chromatography. N-terminally biotinylated NCoA3 coactivator peptide (SEQ ID NO:7) was chemically synthesized (Eurogentec). Assays were done in 384 well format (final assay volume of 25 μL/well) in a Tris/HCl buffer (pH 6.8) containing KCl, bovine serum albumin, Triton-X-100 and 1 μM 24(S)-25-epoxycholesterol as LXR-prestimulating agonist. Assay buffer was provided and test articles (potential LXR inverse agonists) were titrated to yield final assay concentrations of 50 μM, 16.7 μM, 5.6 μM, 1.9 μM, 0.6 μM, 0.2 μM, 0.07 μM, 0.02 μM, 0.007 μM, 0.002 μM with one vehicle control. Finally, a detection mix was added containing anti GST-Tb cryptate (CisBio; 610SAXLB) and Streptavidin-XL665 (CisBio; 610SAXLB) as fluorescent donor and acceptor, respectively, as well as the coactivator peptide and LXRβ-LBD protein (SEQ ID NO:4). The reaction was mixed thoroughly, equilibrated for 1 h at 4° C. and vicinity of LXRβ and coactivator peptide was detected by measurement of fluorescence in a VictorX4 multiplate reader (PerkinElmer Life Science) using 340 nm as excitation and 615 and 665 nm as emission wavelengths. Assays were performed in triplicates.
Final Assay Concentrations of Components:
240 mM KCl, 1 μg/μL BSA, 0.002% Triton-X-100, […] anti GST-Tb cryptate, 2.5 ng/μL Streptavidin-XL665, coactivator peptide (400 nM), LXRβ protein (530 μg/mL, i.e. 76 nM).

Another assay concerns the target T2, full length (FL) LXRα (Homo sapiens, UniProt Q13133).
T2 construct: the full length (FL) proteins of LXRα (amino acids 1-447); NP005684; expressed in transfected cells; host or cells: HEK293
T2 sequence (Q13133 1-447): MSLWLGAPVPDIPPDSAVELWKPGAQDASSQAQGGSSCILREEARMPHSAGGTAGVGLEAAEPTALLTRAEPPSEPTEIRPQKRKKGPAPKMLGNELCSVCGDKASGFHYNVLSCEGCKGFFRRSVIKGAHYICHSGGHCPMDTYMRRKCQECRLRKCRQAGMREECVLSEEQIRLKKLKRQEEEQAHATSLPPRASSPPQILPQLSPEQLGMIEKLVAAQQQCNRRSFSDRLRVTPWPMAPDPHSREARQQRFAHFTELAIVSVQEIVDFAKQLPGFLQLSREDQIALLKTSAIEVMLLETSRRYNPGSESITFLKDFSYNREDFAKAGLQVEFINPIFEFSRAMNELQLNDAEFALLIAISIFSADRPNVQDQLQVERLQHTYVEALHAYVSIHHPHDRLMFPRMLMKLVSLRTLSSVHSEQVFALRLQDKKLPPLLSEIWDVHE
In words: LXR Gal4 reporter transient transfection assay (FL-M2H Gal4α). The assay is classed as cell-based. Particulars: HEK293 cells, full length LXRα; read-out: FL-M2H Gal4α (EC50 range). How it is done: as §1
(§2) LXR Gal4 Reporter Transient Transfection Assays
(§3) LXRα and LXRβ activity status was determined via detection of interaction with coactivator and corepressor proteins in mammalian two-hybrid experiments (M2H). For this, via transient transfection the full length (FL) proteins of LXRα (amino acids 1-447; NP005684; SEQ ID NO:1) or LXRβ-(amino acids 1-461; NP009052; SEQ ID NO:2) or the ligand-binding domains (LBD) of LXRα (amino acids 155-447 SEQ ID NO:3) or LXRβ (amino acids 156-461; SEQ ID NO:4) were expressed from pCMV-AD (Stratagene) as fusions to the transcriptional activation domain of NFkB. As cofactors, domains of either the steroid receptor coactivator 1 (SRC1; amino acids 552-887; SEQ ID NO:5) or of the corepressor NCoR (amino acids 1906-2312; NP006302; SEQ ID NO:6) were expressed as fusions to the DNA binding domain of the yeast transcription factor GAL4 (from pCMV-BD; Stratagene). Interaction was monitored via activation of a coexpressed Firefly Luciferase Reporter gene under control of a promoter containing repetitive GAL4 response elements (vector pFRLuc; Stratagene). Transfection efficiency was controlled via cotransfection of constitutively active pRL-CMV Renila reniformis luciferase reporter (Promega). HEK293 cells were grown in minimum essential medium (MEM) with 2 mM L-glutamine and Earle's balanced salt solution supplemented with 8.3% fetal bovine serum, 0.1 mM non-essential amino acids, 1 mM sodium pyruvate, at 37° C. in 5% CO2. 3.5×10^4 cells/well were plated in 96-well cell culture plates in growth medium supplemented with 8.3% fetal bovine serum for 16-20 h to ˜90% confluency. For transfection, medium was taken off and LXR and cofactor expressing plasmids as well as the reporter plasmids are added in 30 μL OPTIMEM/well including polyethylene-imine (PEI) as vehicle. Typical amounts of plasmids transfected/well: pCMV-AD-LXR (5 ng), pCMV-BD-cofactor (5 ng), pFR-Luc (100 ng), pRL-CMV (0.5 ng). Compound stocks were prepared in DMSO, prediluted in MEM to a total volume of 120 μL, and added 4 h after addition of the transfection mixture (final vehicle concentration not exceeding 0.2%). Cells were incubated for additional 16 h, lysed for 10 min in 1× Passive Lysis Buffer (Promega) and Firefly and Renilla luciferase activities were measured sequentially in the same cell extract using buffers containing D-luciferine and coelenterazine, respectively. Measurements of luminescence were done in a BMG-luminometer.

For a further assay, the target named is T3, full length (FL) LXRβ (Homo sapiens, UniProt P55055, DUP175-175).
T3 construct: the full length (FL) proteins of LXRα (amino acids 1-447); NP005684; NP009052; expressed in transfected cells; host or cells: HEK293
T3 sequence (P55055 with tags, fused parts or gaps DUP175-175): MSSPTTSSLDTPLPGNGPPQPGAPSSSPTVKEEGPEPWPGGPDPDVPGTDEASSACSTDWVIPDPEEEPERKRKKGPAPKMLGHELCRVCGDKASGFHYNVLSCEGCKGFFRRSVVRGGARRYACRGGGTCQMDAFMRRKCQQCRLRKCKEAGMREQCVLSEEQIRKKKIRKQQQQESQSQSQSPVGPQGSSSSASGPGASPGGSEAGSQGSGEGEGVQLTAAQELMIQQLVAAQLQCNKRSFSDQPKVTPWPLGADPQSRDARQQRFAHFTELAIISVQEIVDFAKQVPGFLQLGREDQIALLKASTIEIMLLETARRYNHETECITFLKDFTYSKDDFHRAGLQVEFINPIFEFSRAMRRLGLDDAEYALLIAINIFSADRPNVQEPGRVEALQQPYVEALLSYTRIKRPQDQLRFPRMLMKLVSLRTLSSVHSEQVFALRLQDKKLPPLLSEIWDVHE
Description: LXR Gal4 reporter transient transfection assay (FL-M2H Gal4β). The class given is cell-based. Particulars: HEK293 cells, full length LXRβ; read-out: FL-M2H Gal4β (EC50 range). As to the method: as §1, §2, §3

Our source for the EC50 values is patent publication US11618747B2, “LXR modulators with bicyclic core moiety” (OrsoBio, Inc., priority 2018, dated 2023).

Consider `N#Cc1sccc1-c1c(-c2cccc(-c3cc(F)c(C(=O)O)cc3Cl)c2)n(S(=O)(=O)c2ccc(C(F)F)cc2)c2ccc(F)cc12` [11/8], for which the EC50 (in assay [1]; on full length (FL) LXRα; on full length (FL) LXRβ) was below 100 nM throughout.
For `N#Cc1cccc(C#N)c1-c1c(-c2cccc(-c3c(F)c(F)c(C(=O)O)c(F)c3F)c2)n(S(=O)(=O)c2ccc(C(F)F)cc2)c2ccc(F)cc12` [11/54], the EC50 (in assay [1]; at full length (FL) LXRα; on full length (FL) LXRβ) was below 100 nM throughout.
As for `N#Cc1ccccc1-c1c(-c2cccc(-c3ccc(C(=O)O)cc3F)c2)n(S(=O)(=O)c2ccc(C(F)F)cc2)c2ccc(F)cc12` [11/31], the EC50 (in assay [1]; on full length (FL) LXRα; on full length (FL) LXRβ) was below 100 nM each time.
`Cc1ccc(S(=O)(=O)n2c(-c3cccc(-c4ccc(C(=O)O)cc4Cl)c3)c(-c3cccc(F)c3C#N)c3cc(F)ccc32)cc1` [11/1]: the EC50 (in assay [1]; at full length (FL) LXRα; at full length (FL) LXRβ) was below 100 nM in each case.
As to `N#Cc1sccc1-c1c(-c2cccc(-c3cc(F)c(C(=O)O)cc3Cl)c2)n(S(=O)(=O)c2ccc(CF)cc2)c2ccc(F)cc12` [11/7], the concentration giving a half-maximal response (EC50) (in assay [1]; at full length (FL) LXRα; on full length (FL) LXRβ) was below 100 nM each time.
In the case of `Cc1ccc(S(=O)(=O)n2c(-c3cccc(N4CC[C@@H](C(=O)O)C[C@H]4C)c3)c(-c3ccsc3C#N)c3cc(F)ccc32)cc1` [5/9], the EC50 in assay [1] was 100 to 1000 nM; at full length (FL) LXRα, 100 to 1000 nM; on full length (FL) LXRβ, below 100 nM.
Turning to `Cc1ccc(S(=O)(=O)n2c(-c3cccc(C4(C)CC4C(=O)O)c3)c(-c3ccsc3C#N)c3cc(F)ccc32)cc1` (stereo not drawn) [3/2], the EC50 in assay [1] is 1000 to 10000 nM; on full length (FL) LXRα, 100 to 1000 nM; on full length (FL) LXRβ, below 100 nM.
In the same order, the values of `N#Cc1cccc(C#N)c1-c1c(-c2cccc(C34CCC(C(=O)O)(CC3)CC4)c2)n(S(=O)(=O)c2ccc(C(F)F)cc2)c2ccc(F)cc12` [11/58] are below 100 nM, below 100 nM and below 100 nM.
Consider `N#Cc1cccc(C#N)c1-c1c(-c2cccc([C@H]3CC[C@@H](C(=O)O)CC3)c2)n(S(=O)(=O)c2ccc(C(F)F)cc2)c2ccc(F)cc12` [11/61], for which the results for the EC50 (in assay [1]; at full length (FL) LXRα; on full length (FL) LXRβ) were 100 to 1000 nM, below 100 nM and below 100 nM, respectively.
`Cc1ccc(S(=O)(=O)n2c(-c3cccc(-c4ccc(C(C)(O)C(=O)O)cc4)c3)c(-c3ccsc3C#N)c3cc(F)ccc32)cc1` (stereo not drawn) [3/55]: the EC50 in assay [1] is 100 to 1000 nM; on full length (FL) LXRα, below 100 nM; on full length (FL) LXRβ it was below 100 nM.
In the case of `COc1cccnc1-c1c(-c2cccc(-c3ccc(C(=O)O)cc3Cl)c2)n(S(=O)(=O)c2ccc(C(F)F)cc2)c2ccc(F)cc12` [11/40], the EC50 in assay [1] was 100 to 1000 nM; at full length (FL) LXRα, below 100 nM; on full length (FL) LXRβ it was below 100 nM.
Turning to `Cc1cccc(C#N)c1-c1c(-c2cccc(-c3ccc(C(=O)O)cc3Cl)c2)n(S(=O)(=O)c2ccc(C(F)F)cc2)c2ccc(F)cc12` (single isomer, unassigned) [41/1, 2-chloro-3′-(3-(2-cyano-6-methylphenyl)-1-((4-(difluoro-methyl)phenyl)sulfonyl)-5-fluoro-1H-indol-2-yl)-[1,1′-biphenyl]-4-carboxylic Acid], the EC50 (in assay [1]; on full length (FL) LXRα; on full length (FL) LXRβ) was below 100 nM in each case.
For `N#Cc1cccc(C#N)c1-c1c(-c2cccc(-c3c(F)cc(OCC(=O)O)cc3F)c2)n(S(=O)(=O)c2ccc(C(F)F)cc2)c2ccc(F)cc12` [3/71], the EC50 (in assay [1]; on full length (FL) LXRα; at full length (FL) LXRβ) was below 100 nM each time.
With `N#Cc1cccc(C#N)c1-c1c(-c2cccc(-c3ccc(C(=O)O)c(F)c3F)c2)n(S(=O)(=O)c2ccc(C(F)F)cc2)c2ccc(F)cc12` [11/52], the EC50 (in assay [1]; at full length (FL) LXRα; on full length (FL) LXRβ) was below 100 nM in each case.
`N#Cc1cccc(C#N)c1-c1c(-c2cccc(C3CC3C(=O)O)c2)n(S(=O)(=O)c2ccc(C(F)F)cc2)c2ccc(F)cc12` (stereo not drawn) [3/68]: the EC50 in assay [1] was 100 to 1000 nM; at full length (FL) LXRα it was below 100 nM; on full length (FL) LXRβ it was below 100 nM.
